Values belong to the compound of their own block, whether it stands above or below them.
Key:
[1] = system: Plasmodium falciparum; assay: Antimalarial activity against blood stage forms of Plasmodium falciparum 3D7 infected in human erythrocytes; type: functional, organism-based
[2] = Inhibition of Plasmodium falciparum cytochrome b-c1 complex using decylubiquinol as substrate by spectrophotometry
[3] = Inhibition of Plasmodium falciparum recombinant NDH2 expressed in Escherichia coli F571 using decyclubiquinone as substrate at 1 min by spectrophotometry
[4] = system: Plasmodium falciparum; assay: Antimalarial activity against chloroquine-resistant Plasmodium falciparum W2; type: functional, organism-based
[5] = Half life in rat at 20 mg/kg, po; type: ADME, organism-based; set-up: dose 20 mg/kg, route oral; conditions: in vivo
[6] = Cmax in rat at 20 mg/kg, po; type: ADME, organism-based; set-up: dose 20 mg/kg, route oral; conditions: in vivo
[7] = system: Rattus norvegicus; assay: Volume of distribution in rat at 20 mg/kg, po; type: ADME, organism-based; set-up: dose 20 mg/kg, route oral; conditions: in vivo
[8] = Total clearance in rat at 20 mg/kg, po; type: ADME, organism-based; set-up: dose 20 mg/kg, route oral; conditions: in vivo
[9] = system: Plasmodium berghei; assay: Antimalarial activity against Plasmodium berghei NS infected in CD1 mouse assessed as decrease in parasitemia at 20 mg/kg, po administered using SSV as vehicle measured on day 4; type: functional; set-up: scale not given: the % may be the effect or the level left
[10] = Tmax in rat at 20 mg/kg, po; type: ADME, organism-based; set-up: dose 20 mg/kg, route oral; conditions: in vivo
[11] = AUC (0 to t) in rat at 20 mg/kg, po; type: ADME, organism-based; set-up: dose 20 mg/kg, route oral; conditions: plasma
[12] = system: Plasmodium falciparum; assay: Antimalarial activity against […]-resistant Plasmodium falciparum TM90C2B containing cytochrome-b Y268S mutant; type: functional, organism-based
[13] = Metabolic stability in human liver microsomes assessed as compound remaining at 1 uM after 60 mins; type: ADME, Microsome; conditions: read-out: Stability
[14] = system: Plasmodium berghei; assay: Antimalarial activity against Plasmodium berghei NS infected in po dosed CD1 mouse assessed as decrease in parasitemia measured on day 4; type: functional; conditions: 96 h
[15] = system: HepG2; assay: Cytotoxicity against human HepG2 cells; type: cell-based
[16] = system: Liver microsomes; assay: Half life in human liver microsomes at 1 uM; type: ADME, Microsome
[17] = system: Plasmodium berghei; assay: Antimalarial activity against Plasmodium berghei NS infected in CD1 mouse assessed as decrease in parasitemia at 20 mg/kg, po administered using DET as vehicle measured on day 4; type: functional; set-up: scale not given: the % may be the effect or the level left

SMILES: Cc1c(-c2ccc(-c3ccc(OC(F)(F)F)cc3)nc2)[nH]c2cc(F)ccc2c1=O
IC50 [2]: 26.8 nM | IC50 [3]: 4.2 nM | IC50 [1]: 75 nM | IC50 [4]: 70 nM

SMILES: Cc1c(-c2ccc(-c3ccc(OC(F)(F)F)cc3)nc2)nc2ccccc2c1OC(=O)N1CCOCC1
half-life [5]: 20.3 h | Cmax [6]: 8100 ng/mL | Vd [7]: 2.8756 L/kg | CL/F [8]: 1.63 mL/min/kg | Activity [9]: 100% | Tmax [10]: 7 h | AUC(0-t) [11]: 167 µg·h/mL

SMILES: O=c1c(CO)c(-c2ccc(-c3ccc(OC(F)(F)F)cc3)nc2)[nH]c2ccccc12
IC50 [3]: 407 nM | IC50 [1]: 103 nM

SMILES: Cc1c(-c2ccc(-c3ccccc3C(F)(F)F)nc2)[nH]c2ccccc2c1=O
IC50 [3]: 352 nM | IC50 [1]: 109 nM | IC50 [4]: 88 nM | IC50 [12]: 381 nM

SMILES: Cc1c(-c2ccc(-c3ccc(OC(F)(F)F)cc3)nc2)[nH]c2ccccc2c1=O
half-life [5]: 9.9 h | Cmax [6]: 3700 ng/mL | IC50 [2]: 15 nM | remaining at 1 h, 1 µM [13]: 60% | ED50 [14]: 12.8 mg/kg | ED90 [14]: 27.3 mg/kg | Vd [7]: 3.9708 L/kg | CC50 [15]: > 50000 nM | t1/2 [16]: 1.61 h | IC50 [3]: 15 nM | IC50 [1]: 54 nM | CL/F [8]: 4.61 mL/min/kg | Activity [9]: 87.5% | IC50 [4]: 50 nM | Tmax [10]: 7 h | IC50 [12]: 344 nM | Activity [17]: 100% | AUC(0-t) [11]: 69.3 µg·h/mL

SMILES: Cc1c(-c2ccc(-c3ccccc3F)nc2)[nH]c2ccccc2c1=O
IC50 [3]: 131 nM | IC50 [1]: 151 nM | IC50 [4]: 120 nM | IC50 [12]: 324 nM

SMILES: CCOC(=O)c1c(-c2ccc(-c3ccc(OC(F)(F)F)cc3)cc2)[nH]c2ccccc2c1=O
IC50 [1]: 347 nM

SMILES: O=C1C(O)=C([C@H]2CC[C@H](c3ccc(Cl)cc3)CC2)C(=O)c2ccccc21 [ATOVAQUONE]
ED50 [14]: 0.07 mg/kg | ED90 [14]: 0.11 mg/kg | Activity [9]: 100% | IC50 [12]: 12000 nM | Activity [17]: 100%

SMILES: CCN(CC)CCCC(C)Nc1ccnc2cc(Cl)ccc12 (centres undefined) [CHLOROQUINE]
ED50 [14]: 3.3 mg/kg | ED90 [14]: 4.6 mg/kg

SMILES: CCOC(=O)c1c(-c2ccc(-c3ccc(Cl)cc3)cc2)[nH]c2ccccc2c1=O
IC50 [1]: 220 nM | IC50 [12]: 1150 nM

SMILES: Cc1c(-c2ccc(Cc3ccc(C(F)(F)F)nc3)cc2F)[nH]c2ccccc2c1=O
IC50 [1]: 136 nM | IC50 [4]: 67 nM

SMILES: Cc1c(-c2ccc(-c3ccc(OC(F)(F)F)cc3)nc2)[nH]c2ccccc2c1=O.O=P(O)(O)O
ED50 [14]: 1.87 mg/kg | ED90 [14]: 4.72 mg/kg

SMILES: Cc1c(-c2ccc(-c3ccc(C(F)(F)F)nc3)nc2)[nH]c2ccccc2c1=O
IC50 [1]: 370 nM | IC50 [4]: 329 nM

SMILES: Cc1c(-c2ccc(-c3ccc(OC(F)(F)F)cc3)nc2)[nH]c2ccc(Cl)cc2c1=O
IC50 [1]: 298 nM | IC50 [12]: 410 nM

SMILES: Cc1c(-c2ccc(Oc3ccc(OC(F)(F)F)cc3)nc2)[nH]c2ccccc2c1=O
IC50 [3]: 110 nM | IC50 [1]: 40 nM | IC50 [4]: 50 nM

SMILES: COc1cccc2c(=O)c(C)c(-c3ccc(-c4ccc(OC(F)(F)F)cc4)nc3)[nH]c12
IC50 [1]: > 1000 nM

More lines, now with the values ahead:

IC50 [1]: 213 nM
SMILES: Cc1c(-c2ccc(-c3ccc(F)cc3F)cc2)[nH]c2ccccc2c1=O

IC50 [1]: > 1000 nM
SMILES: Cc1c(-c2ccc(-c3ccc(OC(F)(F)F)cc3)nc2)[nH]c2ccc(OC(F)(F)F)cc2c1=O

IC50 [1]: > 1000 nM
SMILES: Cc1c(-c2ccc(-c3cnn(CCN4CCOCC4)c3)cc2)[nH]c2ccccc2c1=O

IC50 [1]: > 1000 nM
SMILES: Cc1c(-c2ccc(OCCN3CCCC3)cc2)[nH]c2ccccc2c1=O

IC50 [1]: 600 nM
SMILES: Cc1c(-c2ccc(-c3ccc(OCCN4CCCCC4)cc3)nc2)[nH]c2ccccc2c1=O

IC50 [1]: > 1000 nM
SMILES: Cc1c(-c2ccc(-c3ccc(OC(F)(F)F)cc3)nc2)[nH]c2ccc(C(F)(F)F)cc2c1=O

IC50 [3]: 8.1 nM | IC50 [1]: 96 nM
SMILES: Cc1c(-c2ccc(-c3ccccc3C(F)(F)F)cc2)[nH]c2ccccc2c1=O

IC50 [1]: 556 nM
SMILES: COc1cccc(-c2ccc(-c3[nH]c4ccccc4c(=O)c3C)cn2)c1

IC50 [1]: 471 nM
SMILES: Cc1c(-c2ccc(-c3ccccc3F)cc2)[nH]c2ccccc2c1=O

IC50 [1]: 202 nM
SMILES: Cc1c(-c2ccc(-c3ccc(OC(F)(F)F)cc3)nc2)[nH]c2cc(O)ccc2c1=O

IC50 [1]: > 1000 nM
SMILES: Cc1c(-c2ccc(OCCN3CCOCC3)cc2)[nH]c2cc(Cl)ccc2c1=O

IC50 [1]: > 1000 nM
SMILES: Cc1c(-c2ccc(OCCN3CCOCC3)cc2)[nH]c2ccccc2c1=O

IC50 [1]: > 1000 nM
SMILES: Cc1c(-c2ccc(-c3ccc(O)cc3)nc2)[nH]c2ccccc2c1=O

IC50 [1]: > 1000 nM
SMILES: Cc1c(-c2ccc(OCCn3ccnc3)cc2)[nH]c2ccccc2c1=O

IC50 [1]: 679 nM
SMILES: Cc1c(-c2ccc(CN3CCN(Cc4ccc(OC(F)(F)F)cc4)CC3)nc2)[nH]c2ccccc2c1=O

IC50 [1]: > 1000 nM
SMILES: Cc1c(-c2ccc(OCCN3CCOCC3)cc2)[nH]c2ccc(Cl)cc2c1=O

IC50 [1]: > 1000 nM
SMILES: Cc1c(-c2ccc(OCCN3CCCCC3)cc2)[nH]c2ccccc2c1=O

Source: ChEMBL document CHEMBL2029230, “Identification, design and biological evaluation of heterocyclic quinolones targeting Plasmodium falciparum type II NADH:quinone oxidoreductase (PfNDH2)” (J Med Chem, 2012)
